Reference: ChEMBL document CHEMBL1152784, “Discovery of 4-substituted methoxybenzoyl-aryl-thiazole as novel anticancer agents: synthesis, biological evaluation, and structure-activity relationships” (J Med Chem, 2009)

Experiments:
LNCaP = assay: Cytotoxicity against human LNCAP cells after 96 hrs by SRB assay
A-375 = assay: Cytotoxicity against human A375 cells after 48 hrs by SRB assay; format: functional, cell-based; details: A-375, 48 h
PC-3 = assay: Cytotoxicity against human PC3 cells after 96 hrs by SRB assay; details: PC-3, 96 h
PPC-1 = assay: Cytotoxicity against human PPC1 cells after 96 hrs by SRB assay
DU-145 = assay: Cytotoxicity against human DU145 cells after 96 hrs by SRB assay; details: DU-145, 96 h
[1] = Cytotoxicity against mouse B16-F1 cells after 48 hrs by SRB assay; format: functional, cell-based; details: B16-F1, 48 h
Bos taurus = species: Bos taurus; assay: Inhibition of bovine brain tubulin assessed as blockade of microtubule polymerization

Row | SMILES | IC50 (LNCaP; Homo sapiens, LNCaP, 96 h) | IC50 (A-375) | IC50 (PC-3) | IC50 (PPC-1; Homo sapiens, PPC-1, 96 h) | IC50 (DU-145) | IC50 [1] | Activity (Bos taurus) | IC50 (LNCaP; lncap) | IC50 (PPC-1; ppc-1)
1 | COc1cc(C(=O)c2csc(-c3ccc(C#N)cc3)n2)cc(OC)c1OC | 15 nM | 59 nM | 30 nM | 19 nM | 52 nM | – | – | – | –
2 | COc1cc(C(=O)c2csc(-c3ncccn3)n2)cc(OC)c1OC | 2370 nM | 4100 nM | 2660 nM | 1190 nM | 2810 nM | – | – | – | –
3 | COc1cc(C(=O)c2csc(-c3ccc(Br)cc3)n2)cc(OC)c1OC | 44 nM | 13 nM | 18 nM | 21 nM | 21 nM | 32 nM | – | – | –
4 | COc1ccc(C(=O)c2csc(-c3ccccc3)n2)cc1 | > 20000 nM | > 100000 nM | > 20000 nM | > 20000 nM | > 20000 nM | > 100000 nM | – | – | –
5 | COc1cc(C(=O)c2csc(-c3ccc(C)cc3)n2)cc(OC)c1OC | – | 11 nM | 5 nM | 6 nM | 7 nM | 21 nM | – | – | –
6 | CCc1ccc(-c2nc(C(=O)c3cc(OC)c(OC)c(OC)c3)cs2)cc1 | 60 nM | – | 27 nM | 22 nM | 31 nM | 70 nM | – | – | –
7 | O=C(c1ccccn1)c1csc(-c2ccccc2)n1 | > 20000 nM | > 100000 nM | > 20000 nM | > 20000 nM | > 20000 nM | > 100000 nM | – | – | –
8 | COc1cc(C(=O)c2csc(-c3ccccc3F)n2)cc(OC)c1OC | 53 nM | 30 nM | 82 nM | 52 nM | 114 nM | 27 nM | – | – | –
9 | COc1cc(C(=O)c2csc(-c3ccc(C(=O)O)cc3)n2)cc(OC)c1OC | > 20000 nM | > 100000 nM | > 20000 nM | > 20000 nM | > 20000 nM | > 100000 nM | – | – | –
10 | CCCCCCCCCCCCCCCCNC(=O)[C@@H]1CSC(c2ccc(NC(C)=O)cc2)N1 (mixture of isomers) | 1000 nM | 2100 nM | – | 400 nM | 1700 nM | 2200 nM | – | – | –
11 | COC(=O)c1ccc(-c2nc(C(=O)c3cc(OC)c(OC)c(OC)c3)cs2)cc1 | > 20000 nM | > 100000 nM | > 20000 nM | > 20000 nM | > 20000 nM | > 100000 nM | – | – | –
12 | COc1ccc(C(=O)c2csc(-c3ccccc3)n2)cc1OC | > 20000 nM | > 100000 nM | > 20000 nM | > 20000 nM | > 20000 nM | > 100000 nM | – | – | –
13 | COc1ccccc1C(=O)c1csc(-c2ccccc2)n1 | > 20000 nM | 70300 nM | > 20000 nM | > 20000 nM | > 20000 nM | 59400 nM | – | – | –
14 | CC(=O)Nc1ccc(C2N[C@H](C(=O)Nc3ccc4c(c3)Cc3ccccc3-4)CS2)cc1 (mixture of isomers) | 3500 nM | – | 2100 nM | 1600 nM | 1900 nM | – | – | – | –
15 | COc1cc(C(=O)c2csc(-c3cccc(F)c3)n2)cc(OC)c1OC | 11 nM | 304 nM | 24 nM | 21 nM | 35 nM | 287 nM | – | – | –
16 | COc1cc(OC)cc(C(=O)c2csc(-c3ccccc3)n2)c1 | 323 nM | 170 nM | 301 nM | 242 nM | 424 nM | 350 nM | – | – | –
17 | COc1cc(NC(=O)[C@@H]2CSC(c3ccccc3)=N2)cc(OC)c1OC | > 20000 nM | 22800 nM | > 20000 nM | 5300 nM | > 20000 nM | 38300 nM | – | – | –
18 | COc1cc(C(=O)c2csc(-c3ccccc3)n2)cc(OC)c1OC | 28 nM | 28 nM | 21 nM | 43 nM | 71 nM | 55 nM | Dose-dependent effect | – | –

Row | SMILES | IC50 (LNCaP; Homo sapiens, LNCaP, 96 h) | IC50 (A-375) | IC50 (PC-3) | IC50 (PPC-1; Homo sapiens, PPC-1, 96 h) | IC50 (DU-145) | IC50 [1] | Activity (Bos taurus) | IC50 (LNCaP; lncap) | IC50 (PPC-1; ppc-1)
19 | O=C(c1ccccc1)c1csc(-c2ccccc2)n1 | > 20000 nM | > 100000 nM | > 20000 nM | > 20000 nM | > 20000 nM | > 100000 nM | – | – | –
20 | COc1cc(NC(=O)c2csc(-c3ccccc3)n2)cc(OC)c1OC | > 20000 nM | > 100000 nM | > 20000 nM | > 20000 nM | > 20000 nM | > 100000 nM | – | – | –
21 | COc1cccc(C(=O)c2csc(-c3ccccc3)n2)c1 | > 20000 nM | > 100000 nM | > 20000 nM | > 20000 nM | > 20000 nM | > 100000 nM | – | – | –
22 | COc1cc(NC(=O)[C@H]2CSC(c3ccccc3)=N2)cc(OC)c1OC | 16800 nM | – | 13200 nM | 3400 nM | > 20000 nM | 30400 nM | – | – | –
23 | COc1cc(C(=O)c2csc(-c3ccc([N+](=O)[O-])cc3)n2)cc(OC)c1OC | 39 nM | – | 56 nM | 34 nM | 95 nM | – | – | – | –
24 | CCCCCCCCCCCCCCCCC(=O)c1csc(-c2ccccc2)n1 | > 20000 nM | 16000 nM | > 20000 nM | > 20000 nM | > 20000 nM | 18600 nM | – | – | –
25 | COc1cc(C(=O)c2csc(-c3ccncc3)n2)cc(OC)c1OC [listing 1 of 2 here] | > 20000 nM | > 100000 nM | > 20000 nM | > 20000 nM | > 20000 nM | > 100000 nM | – | – | –
26 | COc1cc(NC(=O)[C@@H]2CSC(c3cc(OC)c(OC)c(OC)c3)N2)cc(OC)c1OC (mixture of isomers) | > 20000 nM | > 100000 nM | > 20000 nM | > 20000 nM | > 20000 nM | > 100000 nM | – | – | –
27 | O=C(c1csc(-c2ccccc2)n1)c1ccccc1F | > 20000 nM | > 100000 nM | > 20000 nM | > 20000 nM | > 20000 nM | > 100000 nM | – | – | –
28 | COc1cc(C(=O)c2csc(-c3ccc(F)cc3)n2)cc(OC)c1OC | 6 nM | 33 nM | 13 nM | – | – | 43 nM | – | – | –
29 | COc1cc(C(=O)c2csc(-c3ccc(N)cc3)n2)cc(OC)c1OC | 13 nM | 11 nM | 12 nM | 15 nM | 20 nM | 29 nM | – | – | –
30 | COc1cc(C(=O)c2csc(-c3ccncc3)n2)cc(OC)c1OC [listing 2 of 2 here] | – | – | – | – | – | – | – | 16600 nM | 18000 nM
31 | COc1cc(C(=O)c2csc(-c3cccs3)n2)cc(OC)c1OC | 9 nM | 20 nM | – | 13 nM | 22 nM | 38 nM | – | – | –
32 | O=C(c1cc(O)c(O)c(O)c1)c1csc(-c2ccccc2)n1 | > 20000 nM | > 100000 nM | > 20000 nM | > 20000 nM | > 20000 nM | > 100000 nM | – | – | –
33 | COc1cc(NC(=O)[C@@H]2CSC(c3ccccc3)N2)cc(OC)c1OC (mixture of isomers) | > 20000 nM | > 100000 nM | > 20000 nM | > 20000 nM | > 20000 nM | > 100000 nM | – | – | –
34 | COc1cc(C(=O)c2csc(-c3ccc(C(F)(F)F)cc3)n2)cc(OC)c1OC | 94 nM | 23 nM | 58 nM | 76 nM | 50 nM | – | – | – | –
35 | COc1cc(C(=O)c2cscn2)cc(OC)c1OC | > 20000 nM | > 100000 nM | > 20000 nM | > 20000 nM | > 20000 nM | > 100000 nM | – | – | –
